From ChEMBL document CHEMBL1201862, “PubChem BioAssay data set” (2004)
Activity calls are given as the source filed them.

Legend:
[1] = biological target: Aryl hydrocarbon receptor (Homo sapiens, UniProt P35869); experiment: Luminescence-based cell-based high throughput dose response assay for activators of the Aryl Hydrocarbon Receptor (AHR). [Related pubchem assays: 2796 (Primary screen (AHR activators in singlicate)), 2845 (Confirmation screen (AHR activators in triplicate)), 434939 (Counterscreen (PXR activators in triplicate)), 2804 (Summary (AHR activators))]; format: ADME
[2] = growth suppression of beta-catenin-knockout colon cells, dose response, cell-based, HCT116, human colon tumor (AID 1045); format: functional;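 further: HCT116 colon tumor cells with beta catenin knocked out; cells exposed to compound for 60 hours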
[3] = biological target: T1, Dual specificity protein phosphatase 6 (Rattus norvegicus, UniProt Q64346); experiment: MKP-3 phosphatase inhibitors, primary screen, biochemical, rat enzyme, in vitro (AID 425)
T1 sequence (Q64346 whole entry): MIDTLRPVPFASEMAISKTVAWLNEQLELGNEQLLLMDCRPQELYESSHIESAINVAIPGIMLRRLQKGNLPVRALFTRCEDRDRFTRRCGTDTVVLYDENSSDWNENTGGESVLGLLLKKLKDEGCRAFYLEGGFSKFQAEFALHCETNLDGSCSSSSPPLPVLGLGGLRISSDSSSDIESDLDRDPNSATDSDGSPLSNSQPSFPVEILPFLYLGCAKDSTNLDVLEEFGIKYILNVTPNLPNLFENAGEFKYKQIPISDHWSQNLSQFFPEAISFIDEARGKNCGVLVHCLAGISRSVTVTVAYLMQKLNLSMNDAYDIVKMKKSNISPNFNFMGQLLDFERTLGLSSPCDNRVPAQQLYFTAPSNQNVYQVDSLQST

[4] = growth suppression of PTEN-null colon cells, dose response, cell-based, HCT116 PTEN knockout (AID 1047); format: functional;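 further: HCT116 colon tumor cells with PTEN knocked out; cells exposed to compound for 60 hours before readout; potency for loss of cell viability measured by luminescence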
[5] = biological target: T2, Mannose-6-phosphate isomerase (Homo sapiens, UniProt P34949); experiment: human PMI inhibitors, high substrate, primary screen, biochemical, fluorescence intensity, high mannose 6-phosphate (AID 1220)
T2 sequence (P34949 whole entry): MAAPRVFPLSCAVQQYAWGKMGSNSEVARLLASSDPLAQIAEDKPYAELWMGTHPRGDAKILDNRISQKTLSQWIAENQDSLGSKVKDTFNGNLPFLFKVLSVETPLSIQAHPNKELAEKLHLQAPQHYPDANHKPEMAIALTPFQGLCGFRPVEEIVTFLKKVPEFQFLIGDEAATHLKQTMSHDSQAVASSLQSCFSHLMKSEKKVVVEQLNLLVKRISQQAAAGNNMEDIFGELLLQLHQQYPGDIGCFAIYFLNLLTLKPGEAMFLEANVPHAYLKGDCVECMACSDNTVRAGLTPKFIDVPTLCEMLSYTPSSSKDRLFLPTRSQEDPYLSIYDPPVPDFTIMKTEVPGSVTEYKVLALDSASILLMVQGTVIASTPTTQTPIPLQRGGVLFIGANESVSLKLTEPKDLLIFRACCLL

[6] = biological target: T2, Mannose-6-phosphate isomerase; experiment: inhibitors of human PMI, primary screen, biochemical, fluorescence intensity, coupled assay (AID 1209)
[7] = biological target: Heat shock protein HSP 90-alpha (Homo sapiens, UniProt P07900); experiment: Luminescence-based dose response biochemical high throughput screening assay for inhibitors of the Heat Shock Protein 90 (HSP90). [Related pubchem assays: 1831 (Summary AID.), 1846 (Confirmation screen.), 1789 (Primary screen.)]
[8] = THP-1 cell cytotoxicity, dose response, cytotoxicity control for Vif-APOBEC3G degradation inhibitor project, THP-1 cells (AID 1117359); format: functional; details: Human immunodeficiency virus 1, THP-1
Protein Tat = biological target: T3, Protein Tat (Human immunodeficiency virus type 1 group M subtype B (isolate HXB2)(HIV-1), UniProt P04608); format: functional;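 further: tat binding to TAR RNA read out by fluorescence polarization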
T3 sequence (P04608 whole entry): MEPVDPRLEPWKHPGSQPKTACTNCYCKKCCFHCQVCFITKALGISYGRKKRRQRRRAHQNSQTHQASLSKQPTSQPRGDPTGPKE

[9] = biological target: T4, Rac GTPase-activating protein 1 (Homo sapiens, UniProt Q9H0H5); experiment: MgcRacGAP GTPase-activating activity inhibitors, confirmation, biochemical, ADP Hunter fluorescence, primary and confirmatory (AID 624330); format: functional
T4 sequence (Q9H0H5 whole entry): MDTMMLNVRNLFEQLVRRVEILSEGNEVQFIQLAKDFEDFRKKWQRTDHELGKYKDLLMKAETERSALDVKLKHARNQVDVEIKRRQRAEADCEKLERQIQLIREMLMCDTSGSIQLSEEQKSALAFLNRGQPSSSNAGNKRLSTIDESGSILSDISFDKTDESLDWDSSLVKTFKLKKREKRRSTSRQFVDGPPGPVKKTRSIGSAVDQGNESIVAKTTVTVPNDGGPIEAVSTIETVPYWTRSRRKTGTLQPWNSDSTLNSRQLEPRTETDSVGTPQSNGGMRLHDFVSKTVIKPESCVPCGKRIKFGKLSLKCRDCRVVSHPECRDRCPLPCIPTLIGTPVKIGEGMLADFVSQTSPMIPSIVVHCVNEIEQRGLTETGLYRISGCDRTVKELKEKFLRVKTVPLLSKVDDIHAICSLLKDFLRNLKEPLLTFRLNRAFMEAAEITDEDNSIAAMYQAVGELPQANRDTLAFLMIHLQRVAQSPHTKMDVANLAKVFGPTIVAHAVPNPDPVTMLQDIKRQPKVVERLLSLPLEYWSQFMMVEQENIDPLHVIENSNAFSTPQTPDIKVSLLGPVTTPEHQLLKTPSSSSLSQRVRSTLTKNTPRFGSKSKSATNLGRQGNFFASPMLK

[10] = inhibitors of Vif binding to APOBEC3G peptide, primary screen, biochemical, TR-FRET, GST-Vif 1-94, biotin-A3G peptide, dose response retest (AID 1117319); format: functional;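 further: TR-FRET signal of purified GST-Vif binding a biotinylated A3G peptide; inhibitors lower the FRET signal by blocking Vif and A3G binding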
Estrogen receptor beta [11] = biological target: T5, Estrogen receptor beta (Homo sapiens, UniProt Q92731); experiment: ERβ–SRC-3 coactivator interaction inhibitors, confirmation, orthogonal assay, biochemical, ELISA, streptavidin-HRP readout (AID 1060)
[12] = cytotoxicity in HPDE-C7 cells, cell-based, fluorescence, HTS (AID 430); format: functional; details: Homo sapiens
[13] = cytotoxicity in KRAS-transformed pancreatic duct cells, primary screen, cell-based, fluorescence, HTS (AID 431); format: functional; details: Homo sapiens;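 further: cell line used: HPDE-C7K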
H4 = experiment: Luminescence Cell-Based Dose Response HTS to Identify Activators of 5'UTR Stem-Loop Driven Prion Protein mRNA Translation in H4 Neuroglioblastoma Cells. [Related pubchem assays: 1829 (Project Summary), 1814 (Primary HTS)]; format: functional; details: Homo sapiens
[14] = Luminescence Cell-Based Dose Response HTS to Identify Activators of Luciferase Translation or Activity in H4 […] Cells. [Related pubchem assays: 1829 (Project Summary), 1814 (Primary HTS)]; format: functional
[15] = Luminescence Cell-Based Dose Confirmation to Identify Activators of 5'UTR Stem-Loop Driven Alpha-Synuclein mRNA Translation in H4 Neuroglioblastoma Cells. [Related pubchem assays: 1829 (Project Summary), 1814 (Primary HTS)]; format: functional
[16] = Luminescence Cell-Based Dose Response to Identify Activators of 5'UTR Stem-Loop Driven Prion Protein mRNA Translation in H4-C Neuroglioblastoma Cells. [Related pubchem assays: 1829 (Project Summary), 1814 (Primary HTS)]; format: functional
[17] = Luminescence Cell-Based Dose Response to Identify Activators of Luciferase Translation or Activity in H4-C Neuroglioblastoma Cells. [Related pubchem assays: 1829 (Project Summary), 1814 (Primary HTS)]; format: functional
Vero [18] = experiment: cells; format: functional; details: Chlorocebus sabaeus
Vero [19] = experiment: host cell cytotoxicity of antiviral hits, dose response, cytotoxicity control for West Nile virus antiviral project, secondary assay (AID 1650); format: functional; details: Chlorocebus sabaeus
Estrogen receptor beta [20] = biological target: T5, Estrogen receptor beta
[21] = HCT116 cell viability decrease, GSK3B pretreatment – CellTiter-Glo, IC50, dose response (AID 1117339); format: functional; details: HCT-116
[22] = biological target: T6, Ubiquitin-conjugating enzyme E2 N (Homo sapiens, UniProt P61088); format: functional;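 further: Dose-response confirmation in a TR-FRET assay detecting UBC13-driven polyubiquitin chain formation, inhibition measured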
T6 sequence (P61088 whole entry): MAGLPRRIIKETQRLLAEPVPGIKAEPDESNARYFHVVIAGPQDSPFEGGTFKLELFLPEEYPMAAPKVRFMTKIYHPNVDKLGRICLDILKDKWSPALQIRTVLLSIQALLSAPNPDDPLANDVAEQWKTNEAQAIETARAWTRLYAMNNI

[23] = cytotoxicity toward Colo320 cells – cell-based, CellTiter-Glo luminescence, IC50, dose response (AID 1117334); format: functional; details: COLO 320
[24] = CellTiter-Glo luminescent dose response of DLD-1 viability loss (AID 1117352); format: functional
[25] = cytotoxicity toward HCT116 cells – cell-based, CellTiter-Glo luminescence, IC50, dose response (AID 1117332); format: functional; details: HCT-116
[26] = SNU-C1 cell viability reduction, dose response, CellTiter-Glo luminescence (AID 1117323); format: functional, cell-based
[27] = Concentration-dependent survival of SW480 colon cancer line, luminescence detection with CellTiter-Glo, half-maximal inhibitory concentration (AID 1117338); format: functional
[28] = Glucagon-like peptide 1 release potency, NCI-H716 cell line, dose-response, half-maximal inhibitory concentration (AID 1117344); format: functional, cell-based
[29] = half-maximal inhibitory concentration for glucagon-like peptide-1 release, STC-1 cell line, dose-response (AID 1117345); format: functional, cell-based
[30] = cytotoxicity toward HT-29 cells – cell-based, CellTiter-Glo luminescence, IC50, dose response (AID 1117330); format: functional
[31] = RKO cell viability reduction, dose response, CellTiter-Glo luminescence (AID 1117322); format: functional
[32] = Luminescence Cell-Based Dose Confirmation HTS to Identify Activators of 5'UTR Stem-Loop Driven Alpha-Synuclein mRNA Translation in H4 Neuroglioblastoma Cells. [Related pubchem assays: 1829 (Project Summary), 1814 (Primary HTS)]; format: functional

T5 sequence (Q92731 whole entry): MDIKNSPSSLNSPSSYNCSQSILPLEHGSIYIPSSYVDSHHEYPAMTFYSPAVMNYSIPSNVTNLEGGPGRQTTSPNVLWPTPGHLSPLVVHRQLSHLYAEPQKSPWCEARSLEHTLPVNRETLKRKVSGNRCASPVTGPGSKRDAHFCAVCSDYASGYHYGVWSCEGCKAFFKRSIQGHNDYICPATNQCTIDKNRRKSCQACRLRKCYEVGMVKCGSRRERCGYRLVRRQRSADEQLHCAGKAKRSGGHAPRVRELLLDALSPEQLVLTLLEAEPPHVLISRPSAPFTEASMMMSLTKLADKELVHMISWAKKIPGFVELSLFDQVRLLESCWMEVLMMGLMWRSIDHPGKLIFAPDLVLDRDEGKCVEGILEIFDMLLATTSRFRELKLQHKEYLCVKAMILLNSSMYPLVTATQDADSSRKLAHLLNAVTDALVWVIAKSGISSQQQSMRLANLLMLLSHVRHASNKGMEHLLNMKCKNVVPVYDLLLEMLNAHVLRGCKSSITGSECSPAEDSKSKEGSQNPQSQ
Aryl hydrocarbon receptor, sequence (P35869 whole entry): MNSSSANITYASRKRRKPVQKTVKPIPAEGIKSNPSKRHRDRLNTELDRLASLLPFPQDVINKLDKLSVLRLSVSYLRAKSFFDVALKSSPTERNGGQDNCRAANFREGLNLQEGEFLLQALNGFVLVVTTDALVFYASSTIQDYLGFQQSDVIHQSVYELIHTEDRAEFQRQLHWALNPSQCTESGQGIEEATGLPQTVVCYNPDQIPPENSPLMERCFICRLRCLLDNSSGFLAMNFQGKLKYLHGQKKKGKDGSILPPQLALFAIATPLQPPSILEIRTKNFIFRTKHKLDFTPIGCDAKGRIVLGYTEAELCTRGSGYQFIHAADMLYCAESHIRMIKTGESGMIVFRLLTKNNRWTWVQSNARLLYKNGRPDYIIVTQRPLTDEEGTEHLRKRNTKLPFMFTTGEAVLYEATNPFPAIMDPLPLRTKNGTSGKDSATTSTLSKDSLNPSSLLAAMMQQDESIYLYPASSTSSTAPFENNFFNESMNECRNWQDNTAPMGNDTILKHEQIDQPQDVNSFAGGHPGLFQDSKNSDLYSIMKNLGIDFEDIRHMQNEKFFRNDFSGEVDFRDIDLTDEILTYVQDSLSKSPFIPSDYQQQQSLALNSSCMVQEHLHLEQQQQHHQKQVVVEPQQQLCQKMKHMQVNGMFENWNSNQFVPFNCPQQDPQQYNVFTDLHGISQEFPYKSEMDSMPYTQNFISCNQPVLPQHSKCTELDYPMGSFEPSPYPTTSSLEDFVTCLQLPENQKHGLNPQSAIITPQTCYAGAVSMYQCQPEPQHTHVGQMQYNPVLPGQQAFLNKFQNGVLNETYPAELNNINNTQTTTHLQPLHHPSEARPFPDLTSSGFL

Structure (SMILES): O=C(Nc1ccc2c(c1)OCO2)c1ccncc1
- EC50 [1]: 25.3 µM (not active)

Structure (SMILES): O=C1CC(c2ccccc2)c2cc(O)ccc2O1 (centres undefined)
- EC50 [2]: 34.8 µM (active)
- IC50 [3]: > 100 µM (not active)
- EC50 [4]: 32 µM (active)

Structure (SMILES): CC1(C)Oc2ccc3ccc(=O)oc3c2-c2cnoc21
- IC50 [5]: > 50 µM (not active)
- IC50 [6]: > 50 µM (not active)

Structure (SMILES): COc1ccccc1Nc1nn2c(=O)c3ccc(C(=O)NCc4cccnc4)cc3nc2s1
- IC50 [7]: 4.9 µM (active)

Structure (SMILES): COc1ccc(Br)cc1CNc1ccc(O)cc1
- CC50 [8]: > 40 µM (active)
- IC50 (Protein Tat): 46.7 µM (inconclusive)
- IC50 [9]: 26.8 µM (active)

Structure (SMILES): CCC(Sc1nc(O)cc(-c2ccccc2)n1)C(=O)O (centres undefined)
- IC50 [10]: > 100 µM (active)

Structure (SMILES): CN(C)c1ccc(NC(=O)N2CCOCC2)cc1
- IC50 (Estrogen receptor beta [11]): 0.0633 µM (not active)

Structure (SMILES): CN1C(=O)C2(OCC(COc3ccc(Cl)cc3)O2)c2ccccc21 (centres undefined)
- EC50 [12]: > 20 µM (not active)
- EC50 [13]: > 20 µM (not active)

Structure (SMILES): CCCCSc1nc2c(cnn2-c2ccccc2)c(=O)n1N
- EC50 (H4): > 120 µM (not active)
- EC50 [14]: < 100 nM (active)
- EC50 [15]: 0.646 µM (active)
- EC50 [16]: 348 nM (active)
- EC50 [17]: 347 nM (active)

Structure (SMILES): O=C(CSc1nnc(C2CCCCC2)n1Cc1ccccc1)NCc1ccco1
- IC50 (Protein Tat): > 100 µM (active)
- IC50 [10]: > 100 µM (active)

Structure (SMILES): CC(=O)OC1CC[C@]2(C#N)[C@H]3CC[C@]4(C)[C@H](C5C=CC(=O)O5)CCC4(O)C3CCC2(O)C1 (some centres undefined)
- CC50 (Vero [18]): 18.5 µM (active)
- CC50 (Vero [19]): 13.5 µM (active)

Structure (SMILES): O=C(Nc1cccc(Cl)c1)c1ccc(O)nn1
- EC50 [1]: 3.4 µM (active)

Structure (SMILES): CCOC(=O)Cn1cnc2sc3c(c2c1=O)CCC3
- IC50 (Estrogen receptor beta [20]): 3.62 µM (active)
- IC50 (Estrogen receptor beta [11]): 106 µM (not active)

Structure (SMILES): CN1CCN(CCCN2c3ccccc3Sc3ccc(C(F)(F)F)cc32)CC1
- IC50 [21]: 3.23 µM (active)
- EC50 [12]: 11.9 µM (active)
- IC50 [22]: > 20 µM (inactive)
- IC50 [23]: 2.36 µM (active)
- IC50 [24]: 7.35 µM (inactive)
- IC50 [25]: 7.22 µM (inactive)
- IC50 [26]: 2.63 µM (active)
- EC50 [13]: 7.72 µM (active)
- EC50 [2]: 11.7 µM (active)
- IC50 [27]: 2.72 µM (active)
- IC50 [28]: > 40 µM (inactive)
- IC50 [29]: > 40 µM (inactive)
- IC50 [30]: 2.81 µM (active)
- EC50 [4]: 11.9 µM (active)
- IC50 [31]: 565 nM (active)

Structure (SMILES): Fc1ccccc1NC(=S)N/N=C/c1ccccc1Br
- EC50 (H4): > 120 µM (not active)
- EC50 [14]: < 100 nM (active)
- EC50 [15]: 5.76 µM (active)
- EC50 [16]: 578 nM (active)
- EC50 [17]: 376 nM (active)
- EC50 [32]: 219 nM (active)

Structure (SMILES): Cc1ccc(Nc2nc(NCCO)c3ccccc3n2)cc1C
- IC50 [22]: > 20 µM (inactive)
- CC50 (Vero [19]): 13.4 µM (active)
